Experimental data taken from ChEMBL document CHEMBL5241075, “Advancement of chimeric hybrid drugs to cure malaria infection: An overview with special emphasis on endoperoxide pharmacophores” (Eur J Med Chem, 2021).
Activity calls are given as the source filed them. No cut-off for these calls is given here.

Key:
[1] = test system: Plasmodium yoelii nigeriensis; assay: Antiplasmodial activity against Plasmodium yoelii nigeriensis infected in po dosed mouse assessed as reduction in parasitemia; assay type: functional
Plasmodium falciparum [2] = assay: Antimalarial activity against chloroquine resistant Plasmodium falciparum FcB1; assay type: functional, organism-based
[3] = test system: Plasmodium yoelii nigeriensis; assay: Antiplasmodial activity against Plasmodium yoelii nigeriensis infected in sc dosed mouse assessed as reduction in parasitemia; assay type: functional
Plasmodium falciparum [4] = assay: Antiplasmodial activity against Plasmodium falciparum F-32; assay type: functional, organism-based
Plasmodium falciparum [5] = assay: Antiplasmodial activity against Plasmodium falciparum FcM29; assay type: functional, organism-based
Plasmodium falciparum [6] = assay: Antiplasmodial activity against Plasmodium falciparum Nigerian; assay type: functional, organism-based
Plasmodium vinckei [7] = assay: Antimalarial activity against Plasmodium vinckei infected in ip dosed mouse assessed as reduction in parasitemia relative to control; assay type: functional; design: scale not given: the % may be the effect or the level left
Plasmodium vinckei [8] = assay: Antimalarial activity against Plasmodium vinckei infected in po dosed mouse assessed as reduction in parasitemia relative to control; assay type: functional; design: scale not given: the % may be the effect or the level left
Plasmodium vinckei [9] = assay: Antimalarial activity against Plasmodium vinckei infected in ip dosed mouse assessed as reduction in parasitemia; assay type: functional
Plasmodium vinckei [10] = assay: Antimalarial activity against Plasmodium vinckei infected in po dosed mouse assessed as reduction in parasitemia; assay type: functional
[11] = test system: Human immunodeficiency virus; assay: Antiviral activity against HIV; assay type: functional, organism-based; details: Human immunodeficiency virus 1
Plasmodium falciparum [12] = assay: Antiplasmodial activity against Plasmodium falciparum TM91C235; assay type: functional, organism-based
Plasmodium berghei [13] = assay: Antimalarial activity against Plasmodium berghei KBG 173 infected in ICR mouse assessed as animal survival at 320 mg/kg/day, po qd administered 3 to 5 days post infection; assay type: functional, organism-based; details: time 3-5 day
Plasmodium berghei [14] = assay: Antimalarial activity against Plasmodium berghei KBG 173 infected in ICR mouse assessed as animal survival at 80 mg/kg/day, po qd administered 3 to 5 days post infection; assay type: functional, organism-based; details: time 3-5 day
Plasmodium berghei [15] = assay: Antimalarial activity against Plasmodium berghei KBG 173 infected in ICR mouse assessed as animal survival at 20 mg/kg/day, po qd administered 3 to 5 days post infection; assay type: functional, organism-based; details: time 3-5 day
Plasmodium berghei [16] = assay: Antimalarial activity against Plasmodium berghei KBG 173 infected in ICR mouse assessed as survival time at 320 mg/kg/day, po qd administered 3 to 5 days post infection; assay type: functional; details: time 3-5 day
Plasmodium berghei [17] = assay: Antimalarial activity against Plasmodium berghei KBG 173 infected in ICR mouse assessed as survival time at 80 mg/kg/day, po qd administered 3 to 5 days post infection; assay type: functional; details: time 3-5 day
Plasmodium berghei [18] = assay: Antimalarial activity against Plasmodium berghei KBG 173 infected in ICR mouse assessed as survival time at 20 mg/kg/day, po qd administered 3 to 5 days post infection; assay type: functional; details: time 3-5 day
Plasmodium falciparum [19] = assay: Antiplasmodial activity against Plasmodium falciparum W2; assay type: functional, organism-based
Plasmodium berghei [20] = assay: Antimalarial activity against liver stage Plasmodium berghei; assay type: functional, organism-based
Caco-2 = assay: Cytotoxicity against human Caco-2 cells assessed as reduction in cell viability; assay type: functional
Plasmodium berghei [21] = assay: Antimalarial activity against Plasmodium berghei infected in mouse assessed as reduction in parasitemia; assay type: functional
Plasmodium yoelii = assay: Antimalarial activity against Plasmodium yoelii infected in mouse assessed as reduction in parasitemia; assay type: functional
Plasmodium falciparum [22] = assay: Antiplasmodial activity against Plasmodium falciparum; assay type: functional, organism-based
[23] = Lipophilicity, logP of compound; assay type: physicochemical; details: octanol/water

CC(C)C1=C[C@H]2OC3(CCC(NCCNc4cc(Cl)cc5cccnc45)CC3)OO[C@@]2(C)CC1.O=C(O)CC(O)(CC(=O)O)C(=O)O.O=C(O)CC(O)(CC(=O)O)C(=O)O (stereo not given in full)
CD50 [1]: 22 mg/kg/day
CD90 [1]: 44 mg/kg/day
ED50 ([1]; Plasmodium yoelii): 15 mg/kg/day
ED90 ([1]; Plasmodium yoelii): 23 mg/kg/day
IC50 (Plasmodium falciparum [2]): 0.004 µM
CD50 [3]: 3 mg/kg/day
CD90 [3]: 12 mg/kg/day
ED50 ([3]; Plasmodium yoelii): 2 mg/kg/day
ED90 ([3]; Plasmodium yoelii): 5 mg/kg/day
IC50 (Plasmodium falciparum [4]): 0.004 µM
IC50 (Plasmodium falciparum [5]): 0.004 µM
IC50 (Plasmodium falciparum [6]): 0.004 µM
Activity (Plasmodium vinckei [7]): 50%
Activity (Plasmodium vinckei [8]): 50%
ED50 (Plasmodium vinckei [9]): 5 mg/kg/day
ED50 (Plasmodium vinckei [10]): 18 mg/kg/day

Cc1cn([C@H]2C[C@H](N=[N+]=[N-])[C@@H](CO[C@H]3OC4O[C@]5(C)CC[C@H]6[C@H](C)CC[C@@H]([C@H]3C)[C@@]46OO5)O2)c(=O)[nH]c1=O (stereo not given in full)
IC50 [11]: 2.86 µM

O=C(NCCNc1ccnc2cc(Cl)ccc12)C1CCC2(CC1)OOC1(CCCCC1)OO2
IC90 (Plasmodium falciparum [12]): 0.00378 µM
Activity (Plasmodium berghei [13]): Active
Activity (Plasmodium berghei [14]): Active
Activity (Plasmodium berghei [15]): inactive
Time (Plasmodium berghei [16]): >31 days
Time (Plasmodium berghei [17]): 26.2 days
Time (Plasmodium berghei [18]): 14.2 days

COc1cc(NC(C)CCCNC(=O)C2CCC3(CC2)OOC2(OO3)C3CC4CC(C3)CC2C4)c2nccc(Br)c2c1 (stereo not given)
EC50 (Plasmodium falciparum [19]): 0.061 µM
EC50 (Plasmodium berghei [20]): 4.44 µM
CC50 (Caco-2): > 50000 µM

C[C@@H]1CC[C@H]2[C@@H](C)C(N3CCS(=O)(=O)CC3)O[C@@H]3O[C@]4(C)CC[C@@H]1[C@]32OO4 (stereo not given in full)
ED50 (Plasmodium berghei [21]): 1.5 mg/kg
ED50 (Plasmodium yoelii): 3.9 mg/kg
EC50 (Plasmodium falciparum [22]): 0.00014 µM
EC90 (Plasmodium falciparum [22]): 0.00255 µM
logP [23]: 2.49

COc1cc(NC(C)CCCNC(=O)C2CCC3(CC2)OOC2(OO3)C3CC4CC(C3)CC2C4)c2nccc(Cl)c2c1 (stereo not given)
EC50 (Plasmodium falciparum [19]): 0.075 µM
EC50 (Plasmodium berghei [20]): 2.81 µM
CC50 (Caco-2): > 50000 µM
